Results from patent US20110207627A1, “EX VIVO THERAPEUTICS SCREENING OF LIVING BONE MARROW CELLS FOR MULTIPLE MYELOMA” (GEORGE MASON UNIVERSITY, priority 2008, published 2011).

Tested on: CD138+ cells and bone marrow cells (BMC)
Assay: Ex vivo treatment of multiple myeloma bone marrow aspirates, reverse phase protein microarray, CD138+ cells compared with bone marrow cells
Type: cell-based, human
Settings: female, treatment naive multiple myeloma patient; 4 hours ex vivo; IL-6 stimulated cells compared to IGF1R & Rapamycin combination (FIG. 3)
From the text: A workflow using protein kinase signal pathway mapping technology was developed for the ex vivo, short-term drug treatment of fresh, living human multiple myeloma (MM) bone marrow aspirate tumor cells, compared to non MM bone marrow cells for the same patient. The study sought a) to measure the signal pathway perturbations caused by the inhibitor/ligand treatment in individual baseline bone marrow aspirate samples, b) to correlate this with the susceptibility of the ex vivo living sample to apoptosis induction, within 4 hours, by a molecular targeted inhibitor which blocks this pathway, and c) to compare the relative sensitivity of tumor and non tumor bone marrow cells treated in admixture under identical conditions to identify predictive/prognostic protein-based biomarkers.
Human bone marrow aspirates (n=20) and clinical information were collected following an IRB approved protocol from patients providing informed consent. A portion of the aspirate that was not needed for pathological diagnosis was immediately fixed for baseline analysis and the remaining sample was separated into multiple aliquots for ex vivo treatment. […]
Reverse phase protein arrays were used to quantitatively map 60 to 75 signal pathway endpoints. The impact of each treatment was measured on the selected endpoint compared to the vehicle control. […]

“IL-6: cytokine used as exogenous ligand to stimulate cells” was tested, and the pro survival signaling was “Differential pro survival signaling”.
